In brackets after ≈: the same amount, converted by molar mass. Activity calls are given as the source filed them. The rule behind the calls is not given here.
Legend:
[1] = molecular target: Oxidized purine nucleoside triphosphate hydrolase (Homo sapiens) (UniProt P36639)
[2] = Solubility of the compound in buffer
[3] = (§1) Intrinsic clearance in mouse liver microsomes at […] preincubated for 5 mins followed by NADPH addition measured by LC-MS/MS analysis; assay type: ADME, microsome; details: liver microsomes, read-out: CLH
[4] = Drug metabolism in mouse liver microsomes at […] preincubated for 5 mins followed by NADPH addition measured after 30 mins by LC-MS/MS analysis; assay type: ADME, microsome; details: read-out: Drug metabolism
[5] = Apparent permeability across basolateral to apical side in human Caco2 cells at 10 uM after 60 mins by LC-MS/MS analysis; details: Caco-2
[6] = Efflux ratio of permeability in human Caco2 cells at 10 uM after 60 mins by LC-MS/MS analysis; details: Caco-2
[7] = Apparent permeability across apical to basolateral side in human Caco2 cells at 10 uM after 60 mins by LC-MS/MS analysis; details: Caco-2
[8] = Apparent permeability across basolateral to apical side in human Caco2 cells at 2 uM after 2 hrs by LC-MS/MS analysis; assay type: ADME, cell-based; details: Caco-2
[9] = Efflux ratio of apparent permeability in human Caco2 cells at 2 uM after 2 hrs by LC-MS/MS analysis; details: Caco-2
[10] = Apparent permeability across apical to basolateral side in human Caco2 cells at 2 uM after 2 hrs by LC-MS/MS analysis; assay type: ADME, cell-based; details: Caco-2
Liver = assay: as §1; assay type: ADME, microsome; details: microsomes, 1000 µM
[11] = molecular target: Oxidized purine nucleoside triphosphate hydrolase (Homo sapiens) (UniProt P36639); assay: Inhibition of human full length MTH1 at 20 uM using 8-Oxo-2-dGTP as substrate preincubated for 15 mins followed substrate addition measured after 1 hr by PPilight pyrophosphate-detection based assay

| SMILES | solubility [2] | microsomal CLint at 1000 µM [3] | metabolised at 0.5 h [4] | Papp B→A at 1 h, 10 µM [5] | efflux ratio at 1 h, 10 µM [6] | Papp A→B at 1 h, 10 µM [7] | also measured |
| --- | --- | --- | --- | --- | --- | --- | --- |
| CNC(=O)c1cc2c(-c3cccnc3)ccnc2[nH]1 | 1000 µM (≈ 252 µg/mL) | – | – | – | – | – | ΔTm [1]: 14.4 °C |
| Cc1cc2c(-c3cccc(Cl)c3)ccnc2[nH]1 | 50 µM (≈ 12.1 µg/mL) | – | – | – | – | – | – |
| CCNC(=O)c1cc2c(N3CCCC3c3cccnc3)ccnc2[nH]1 (centres undefined) | 500 µM (≈ 168 µg/mL) | 49 µL/min/mg | 52% | 31 ×10⁻⁶ cm/s | 8.3 | 4 ×10⁻⁶ cm/s | – |
| Clc1cccc(-c2ccnc3[nH]ccc23)c1 | 250 µM (≈ 57.2 µg/mL) | – | – | – | – | – | – |
| Clc1cccc(-c2ccnc3[nH]c(-c4cnco4)cc23)c1 | 50 µM (≈ 14.8 µg/mL) | – | – | – | – | – | – |
| CCNC(=O)c1cc2c(N3CCOCC3c3ccccc3)ccnc2[nH]1 (centres undefined) | 250 µM (≈ 87.6 µg/mL) | 156 µL/min/mg | 90% | – | – | – | Papp B→A at 2 h, 2 µM [8]: 89 ×10⁻⁶ cm/s; efflux ratio at 2 h, 2 µM [9]: 1.4; Papp A→B at 2 h, 2 µM [10]: 63 ×10⁻⁶ cm/s |
| NC(=O)c1cc2c(-c3cccc(Cl)c3)ccnc2[nH]1 | 100 µM (≈ 27.2 µg/mL) | – | – | – | – | – | – |
| c1cncc(C2CCCN2c2ccnc3[nH]ncc23)c1 (centres undefined) | 1000 µM (≈ 265 µg/mL) | 45 µL/min/mg | 54% | 50 ×10⁻⁶ cm/s | 1.1 | 44 ×10⁻⁶ cm/s | – |
| O=C(NC1CC1)c1cc2c(-c3cccc(Cl)c3)ccnc2[nH]1 | 100 µM (≈ 31.2 µg/mL) | 115 µL/min/mg | 83% | 18 ×10⁻⁶ cm/s | 1 | 18 ×10⁻⁶ cm/s | – |
| c1ccc2c(c1)OCCN2c1ccnc2[nH]ccc12 | 250 µM (≈ 62.8 µg/mL) | – | 100% | 35 ×10⁻⁶ cm/s | 0.9 | 39 ×10⁻⁶ cm/s | microsomal intrinsic clearance (Liver): Unstable |
| c1ccc(C2CCCN2c2ccnc3[nH]ccc23)cc1 (centres undefined) | 250 µM (≈ 65.8 µg/mL) | 244 µL/min/mg | 97% | 46 ×10⁻⁶ cm/s | 0.7 | 69 ×10⁻⁶ cm/s | – |
| CCNC(=O)c1cc2c(N3CCOCC3C3CC3)ccnc2[nH]1 (centres undefined) | 500 µM (≈ 157 µg/mL) | 45 µL/min/mg | 48% | – | – | – | Papp B→A at 2 h, 2 µM [8]: 79 ×10⁻⁶ cm/s; efflux ratio at 2 h, 2 µM [9]: 3.3; Papp A→B at 2 h, 2 µM [10]: 24 ×10⁻⁶ cm/s |
| CNC(=O)c1cc2c(-c3cccc(Cl)c3)ccnc2[nH]1 | 250 µM (≈ 71.4 µg/mL) | – | – | – | – | – | – |
| N#Cc1cc2c(-c3cccc(Cl)c3)ccnc2[nH]1 | 250 µM (≈ 63.4 µg/mL) | – | – | – | – | – | – |
| O=C(NC1COC1)c1cc2c(N3CCCC3c3ccccn3)ccnc2[nH]1 (centres undefined) | 250 µM (≈ 90.9 µg/mL) | 25 µL/min/mg | 33% | 46 ×10⁻⁶ cm/s | 6.7 | 7 ×10⁻⁶ cm/s | – |
| CCOC(=O)c1ccnc2[nH]ccc12 | 2000 µM (≈ 380 µg/mL) | – | – | – | – | – | – |
| O=C(NC1COC1)c1cc2c(N3CCCC3c3cccnc3)ccnc2[nH]1 (centres undefined) | – | 24 µL/min/mg | 29% | – | – | – | – |
| CCNC(=O)c1cc2c(N3CCCC3c3ccccc3)ccnc2[nH]1 (centres undefined) | 100 µM (≈ 33.4 µg/mL) | 130 µL/min/mg | 85% | 63 ×10⁻⁶ cm/s | 1.6 | 41 ×10⁻⁶ cm/s | – |

| SMILES | solubility [2] | microsomal CLint at 1000 µM [3] | metabolised at 0.5 h [4] | Papp B→A at 1 h, 10 µM [5] | efflux ratio at 1 h, 10 µM [6] | Papp A→B at 1 h, 10 µM [7] | also measured |
| --- | --- | --- | --- | --- | --- | --- | --- |
| c1cncc(-c2ccnc3[nH]ccc23)c1 | 2000 µM (≈ 390 µg/mL) | – | – | – | – | – | ΔTm [1]: 8.2 °C |
| CCNC(=O)c1cc2c(N3CCCC3c3ccccn3)ccnc2[nH]1 (centres undefined) | 500 µM (≈ 168 µg/mL) | 48 µL/min/mg | 53% | 72 ×10⁻⁶ cm/s | 4.7 | 15 ×10⁻⁶ cm/s | – |
| c1ccc2c(c1)CCN(c1ccnc3[nH]ccc13)C2 | 10 µM (≈ 2.49 µg/mL) | – | – | – | – | – | – |
| CCNC(=O)c1cc2c(-c3cccc(Cl)c3)ccnc2[nH]1 | 250 µM (≈ 74.9 µg/mL) | – | – | – | – | – | – |
| CCNC(=O)c1cc2c(N3CCCC3C(C)(C)OC)ccnc2[nH]1 (centres undefined) | 1000 µM (≈ 330 µg/mL) | 54 µL/min/mg | 56% | – | – | – | Papp B→A at 2 h, 2 µM [8]: 225 ×10⁻⁶ cm/s; efflux ratio at 2 h, 2 µM [9]: 1.3; Papp A→B at 2 h, 2 µM [10]: 170 ×10⁻⁶ cm/s |
| O=C(NC1CC1)c1cc2c(N3CCCC3c3ccccn3)ccnc2[nH]1 (centres undefined) | 250 µM (≈ 86.9 µg/mL) | 44 µL/min/mg | 50% | 76 ×10⁻⁶ cm/s | 5.7 | 13 ×10⁻⁶ cm/s | – |
| c1ccc(C2COCCN2c2ccnc3[nH]ncc23)cc1 (centres undefined) | 1000 µM (≈ 280 µg/mL) | 232 µL/min/mg | 97% | 73 ×10⁻⁶ cm/s | 0.8 | 88 ×10⁻⁶ cm/s | – |
| CCNC(=O)c1cc2c(N3CCOC[C@@H]3C)ccnc2n1C | – | – | – | – | – | – | inhibition [11]: inactive |
| CCNC(=O)c1cc2c(N3CCOC[C@@H]3C)ccnc2[nH]1 | 500 µM (≈ 144 µg/mL) | 36 µL/min/mg | 43% | – | – | – | Papp B→A at 2 h, 2 µM [8]: 209 ×10⁻⁶ cm/s; ΔTm [1]: 21 °C; Papp A→B at 2 h, 2 µM [10]: 148 ×10⁻⁶ cm/s |
| CN(C)C(=O)c1cc2c(-c3cccc(Cl)c3)ccnc2[nH]1 | 250 µM (≈ 74.9 µg/mL) | – | – | – | – | – | – |
| c1cnc2c(c1)CCN2c1ccnc2[nH]ccc12 | 250 µM (≈ 59.1 µg/mL) | – | – | – | – | – | – |
| c1cc(-c2cnc3[nH]ccc3c2)c2cc[nH]c2n1 | 500 µM (≈ 117 µg/mL) | – | – | – | – | – | ΔTm [1]: 7.9 °C |
| c1ccc(C2CCCN2c2ccnc3[nH]ncc23)cc1 (centres undefined) | 250 µM (≈ 66.1 µg/mL) | 222 µL/min/mg | 99% | 63 ×10⁻⁶ cm/s | 0.8 | 74 ×10⁻⁶ cm/s | – |
| OCc1cc2c(-c3cccc(Cl)c3)ccnc2[nH]1 | 10 µM (≈ 2.59 µg/mL) | – | – | – | – | – | – |
| COC(C)(C)C1CCCN1c1ccnc2[nH]ncc12 (centres undefined) | 1000 µM (≈ 260 µg/mL) | 153 µL/min/mg | 92% | 66 ×10⁻⁶ cm/s | 0.9 | 75 ×10⁻⁶ cm/s | – |
| c1ccc(C2CN(c3ccnc4[nH]ccc34)CCO2)cc1 (centres undefined) | 250 µM (≈ 69.8 µg/mL) | – | – | – | – | – | – |
| Clc1cccc(-c2ccnc3[nH]ncc23)c1 | 100 µM (≈ 23 µg/mL) | – | – | – | – | – | – |
